Measured values published in patent publication US9073926B2, “Heterocyclic compounds containing a pyrrolopyridine or benzimidazole core” (Boehringer Ingelheim International GmbH, priority 2009, dated 2015).

What was measured:
NHE1 = details: Cuello et al., Mol Pharmacol 71:799-806, 2007; cited from earlier work
Human RSK2 = Human RSK2 (Homo sapiens (Human), UniProt P51812); assay: Human RSK2 Assay (Kinase Glo Plus, residual ATP); type: biochemical; details: 0.75 nM His-RSK2, 0.75 μM ATP, 1.0 μM S6 Kinase/RSK Substrate Peptide 1
How it was run: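 His-RSK2 (0.75 nM) with 0.75 μM ATP and 1.0 μM S6 kinase/RSK substrate peptide in HEPES pH 7.5 buffer with Mg/Mn, 90 min at 28° C. Residual ATP read by Kinase Glo Plus luminescence; percent of control fitted to a 4-parameter logistic, IC50 taken as inflection point.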

Sequence of Human RSK2 (P51812 whole entry): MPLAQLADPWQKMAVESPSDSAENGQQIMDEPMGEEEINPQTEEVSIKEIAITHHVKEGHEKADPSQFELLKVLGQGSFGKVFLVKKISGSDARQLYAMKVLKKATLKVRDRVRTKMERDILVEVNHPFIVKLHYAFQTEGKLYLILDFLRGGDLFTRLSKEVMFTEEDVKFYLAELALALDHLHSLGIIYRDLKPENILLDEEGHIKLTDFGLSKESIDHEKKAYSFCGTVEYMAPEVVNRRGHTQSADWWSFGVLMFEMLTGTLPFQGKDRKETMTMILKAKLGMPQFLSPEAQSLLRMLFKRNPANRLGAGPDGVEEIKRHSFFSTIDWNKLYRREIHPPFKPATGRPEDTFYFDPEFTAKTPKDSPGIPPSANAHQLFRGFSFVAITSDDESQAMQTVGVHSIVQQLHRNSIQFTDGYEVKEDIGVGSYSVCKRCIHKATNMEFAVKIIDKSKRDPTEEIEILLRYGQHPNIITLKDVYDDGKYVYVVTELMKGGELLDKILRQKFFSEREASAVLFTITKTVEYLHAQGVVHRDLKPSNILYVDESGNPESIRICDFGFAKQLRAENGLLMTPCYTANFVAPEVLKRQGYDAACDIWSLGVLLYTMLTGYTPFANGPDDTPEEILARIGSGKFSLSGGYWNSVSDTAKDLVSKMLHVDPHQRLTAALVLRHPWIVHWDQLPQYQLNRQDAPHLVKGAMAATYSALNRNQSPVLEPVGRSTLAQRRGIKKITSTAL

Structure (SMILES): Cc1ccc(-c2c(C(=O)CF)n(CCCO)c3ncnc(N)c23)cc1 [fmk]
- basal NHE1 activity (NHE1): without affecting basal activity
- phosphorylation of NHE1 and phenylephrine-induced enhanced NHE1 activity (NHE1): inhibit phosphorylation of NHE1

Structure (SMILES): CC1(C)CNC(=O)c2cc3ccc(C(=O)Nc4cc(-c5ccccc5)on4)nc3n2C1 [Example 92, 9,9-dimethyl-6-oxo-N-(5-phenyl-1,2-oxazol-3-yl)-7,8,9,10-tetrahydro-6H-pyrido[3′,2′:4,5]pyrrolo[1,2-a][1,4]diazepine-2-carboxamide]
- IC50 (Human RSK2): 502 nM

Structure (SMILES): C[C@@H]1CNC(=O)c2cc3ccc(C(=O)Nc4nc5ccccc5n4CCCN(C)C)nc3n21 [Example 76, (9R)-N-{1-[3-(dimethylamino)propyl]-1H-benzimidazol-2-yl}-9-methyl-6-oxo-6,7,8,9-tetrahydropyrido[3′,2′:4,5]pyrrolo[1,2-a]pyrazine-2-carboxamide]
- IC50 (Human RSK2): 54 nM

Structure (SMILES): C[C@H]1NC(=O)c2cc3ccc(C(=O)Nc4cc(Cc5ccccc5)on4)nc3n2[C@H]1C (relative stereo) [Example 99, N-(5-benzyl-1,2-oxazol-3-yl)-cis-8,9-dimethyl-6-oxo-6,7,8,9-tetrahydropyrido[3′,2′:4,5]pyrrolo[1,2-a]pyrazine-2-carboxamide]
- IC50 (Human RSK2): 5.1 nM

Structure (SMILES): C[C@H]1CNC(=O)c2cc3ccc(C(=O)Nc4cnc5ccccc5c4)nc3n21 [Example 65, (9S)-9-methyl-6-oxo-N-(quinolin-3-yl)-6,7,8,9-tetrahydropyrido[3′,2′:4,5]pyrrolo[1,2-a]pyrazine-2-carboxamide]
- IC50 (Human RSK2): 34 nM

Structure (SMILES): Cn1cc(NC(=O)c2ccc3nc4n(c3c2)C(C)(C)CCNC4=O)cn1 [Example 14, 5,5-dimethyl-N-(1-methyl-1H-pyrazol-4-yl)-1-oxo-2,3,4,5-tetrahydro-1H-[1,4]diazepino[1,2-a]benzimidazole-8-carboxamide]
- IC50 (Human RSK2): 4000 nM

Structure (SMILES): CC1CNC(=O)c2cc3ccc(C(=O)Nc4cccnc4)nc3n21 (stereo not shown) [Example 101, 9-methyl-6-oxo-N-(pyridin-3-yl)-6,7,8,9-tetrahydropyrido[3′,2′:4,5]pyrrolo[1,2-a]pyrazine-2-carboxamide]
- IC50 (Human RSK2): 120 nM

Structure (SMILES): C[C@H]1NC(=O)c2cc3ccc(C(=O)Nc4nc5ccccc5n4CCCN(C)C)nc3n2[C@H]1C (relative stereo) [Example 77, N-{1-[3-(dimethylamino)propyl]-1H-benzimidazol-2-yl}-cis-8,9-dimethyl-6-oxo-6,7,8,9-tetrahydropyrido[3′,2′:4,5]pyrrolo[1,2-a]pyrazine-2-carboxamide]
- IC50 (Human RSK2): 29 nM

Structure (SMILES): CC(C)n1c(NC(=O)c2ccc3nc4n(c3c2)CCCNC4=O)nc2ccccc21 [Example 4, 1-oxo-N-[1-(propan-2-yl)-1H-benzimidazol-2-yl]-2,3,4,5-tetrahydro-1H-[1,4]diazepino[1,2-a]benzimidazole-8-carboxamide]
- IC50 (Human RSK2): 33 nM

Structure (SMILES): Cn1cc(NC(=O)c2ccc3cc4n(c3n2)CCCNC4=O)cn1 [Example 41, N-(1-methyl-1H-pyrazol-4-yl)-6-oxo-7,8,9,10-tetrahydro-6H-pyrido[3′,2′:4,5]pyrrolo[1,2-a][1,4]diazepine-2-carboxamide]
- IC50 (Human RSK2): 4.8 nM

Structure (SMILES): Cn1cc(NC(=O)c2ccc3nc4n(c3c2)CCCNC4=O)nc1C(=O)NC1CCCC1 [Example 10, N-[2-(cyclopentylcarbamoyl)-1-methyl-1H-imidazol-4-yl]-1-oxo-2,3,4,5-tetrahydro-1H-[1,4]diazepino[1,2-a]benzimidazole-8-carboxamide]
- IC50 (Human RSK2): 69 nM

Structure (SMILES): CC1CCNC(=O)c2cc3ccc(C(=O)Nc4cc(Cc5ccccc5)no4)nc3n21 (stereo not shown) [Example 96, N-(3-benzyl-1,2-oxazol-5-yl)-10-methyl-6-oxo-7,8,9,10-tetrahydro-6H-pyrido[3′,2′:4,5]pyrrolo[1,2-a][1,4]diazepine-2-carboxamide]
- IC50 (Human RSK2): 13 nM

Structure (SMILES): O=C(Nc1cc(-c2ccccc2)no1)c1ccc2cc3n(c2n1)CCCNC3=O [Example 81, 6-oxo-N-(3-phenyl-1,2-oxazol-5-yl)-7,8,9,10-tetrahydro-6H-pyrido[3′,2′:4,5]pyrrolo[1,2-a][1,4]diazepine-2-carboxamide]
- IC50 (Human RSK2): 4.3 nM

Structure (SMILES): CC1(C)CNC(=O)c2cc3ccc(C(=O)Nc4cc(Cc5ccccc5)on4)nc3n2C1 [Example 93, N-(5-benzyl-1,2-oxazol-3-yl)-9,9-dimethyl-6-oxo-7,8,9,10-tetrahydro-6H-pyrido[3′,2′:4,5]pyrrolo[1,2-a][1,4]diazepine-2-carboxamide]
- IC50 (Human RSK2): 360 nM

Structure (SMILES): CC(C)(C)c1cc(NC(=O)c2ccc3nc4n(c3c2)CCCNC4=O)no1 [Example 21, N-(5-tert-butyl-1,2-oxazol-3-yl)-1-oxo-2,3,4,5-tetrahydro-1H-[1,4]diazepino[1,2-a]benzimidazole-8-carboxamide]
- IC50 (Human RSK2): 2000 nM

Structure (SMILES): Cc1cc(NC(=O)c2ccc3cc4n(c3n2)CC(C)(C)CNC4=O)no1 [Example 91, 9,9-dimethyl-N-(5-methyl-1,2-oxazol-3-yl)-6-oxo-7,8,9,10-tetrahydro-6H-pyrido[3′,2′:4,5]pyrrolo[1,2-a][1,4]diazepine-2-carboxamide]
- IC50 (Human RSK2): 395 nM

Structure (SMILES): NC(=O)c1ccccc1NC(=O)c1ccc2cc3n(c2n1)CCCNC3=O [Example 26, N-(2-carbamoylphenyl)-6-oxo-7,8,9,10-tetrahydro-6H-pyrido[3′,2′:4,5]pyrrolo[1,2-a][1,4]diazepine-2-carboxamide]
- IC50 (Human RSK2): 2.3 nM

Structure (SMILES): CCn1c(NC(=O)c2ccc3cc4n(c3n2)C(C)CCNC4=O)nc2ccccc21 (stereo not shown) [Example 69, N-(1-ethyl-1H-benzimidazol-2-yl)-10-methyl-6-oxo-7,8,9,10-tetrahydro-6H-pyrido[3′,2′:4,5]pyrrolo[1,2-a][1,4]diazepine-2-carboxamide]
- IC50 (Human RSK2): 15 nM

Structure (SMILES): CC(C)n1c(NC(=O)c2ccc3cc4n(c3n2)CC(C)(C)CNC4=O)nc2ccccc21 [Example 54, 9,9-dimethyl-6-oxo-N-[1-(propan-2-yl)-1H-benzimidazol-2-yl]-7,8,9,10-tetrahydro-6H-pyrido[3′,2′:4,5]pyrrolo[1,2-a][1,4]diazepine-2-carboxamide]
- IC50 (Human RSK2): 1300 nM

Structure (SMILES): O=C(Nc1cccc(-c2c[nH]cn2)c1)c1ccc2nc3n(c2c1)CCCNC3=O [Example 22, N-[3-(1H-imidazol-4-yl)phenyl]-1-oxo-2,3,4,5-tetrahydro-1H-[1,4]diazepino[1,2-a]benzimidazole-8-carboxamide]
- IC50 (Human RSK2): 1700 nM

Structure (SMILES): CC(C)(C)c1cc(NC(=O)c2ccc3cc4n(c3n2)CCCNC4=O)no1 [Example 79, N-(5-tert-butyl-1,2-oxazol-3-yl)-6-oxo-7,8,9,10-tetrahydro-6H-pyrido[3′,2′:4,5]pyrrolo[1,2-a][1,4]diazepine-2-carboxamide]
- IC50 (Human RSK2): 19 nM

Structure (SMILES): Cc1nc(-c2cccc(NC(=O)c3ccc4cc5n(c4n3)CCCNC5=O)c2)cs1 [Example 24, N-[3-(2-methyl-1,3-triazol-4-yl)phenyl]-6-oxo-7,8,9,10-tetrahydro-6H-pyrido[3′,2′:4,5]pyrrolo[1,2-a][1,4]diazepine-2-carboxamide]
- IC50 (Human RSK2): 56 nM

Structure (SMILES): Cc1cc(NC(=O)c2ccc3cc4n(c3n2)[C@@H](C)[C@@H](C)NC4=O)no1 (relative stereo) [Example 85, Cis-8,9-dimethyl-N-(5-methyl-1,2-oxazol-3-yl)-6-oxo-6,7,8,9-tetrahydropyrido[3′,2′:4,5]pyrrolo[1,2-a]pyrazine-2-carboxamide]
- IC50 (Human RSK2): 2.6 nM

Structure (SMILES): C[C@@H]1CNC(=O)c2cc3ccc(C(=O)Nc4cnn(Cc5ccccc5)c4)nc3n21 [Example 59, (9R)-N-(1-benzyl-1H-pyrazol-4-yl)-9-methyl-6-oxo-6,7,8,9-tetrahydropyrido[3′,2′:4,5]pyrrolo[1,2-a]pyrazine-2-carboxamide]
- IC50 (Human RSK2): 0.2 nM

Structure (SMILES): O=C(Nc1cccc(F)c1)c1ccc2cc3n(c2n1)CCCNC3=O [Example 25, N-(3-fluorophenyl)-6-oxo-7,8,9,10-tetrahydro-6H-pyrido[3′,2′:4,5]pyrrolo[1,2-a][1,4]diazepine-2-carboxamide]
- IC50 (Human RSK2): 20 nM

Structure (SMILES): CC(C)n1ncc2cc(NC(=O)c3ccc4cc5n(c4n3)[C@H](C)CNC5=O)cnc21 [Example 66, (9R)-9-methyl-6-oxo-N-[1-(propan-2-yl)-1H-pyrazolo[3,4-b]pyridin-5-yl]-6,7,8,9-tetrahydropyrido[3′,2′:4,5]pyrrolo[1,2-a]pyrazine-2-carboxamide]
- IC50 (Human RSK2): 4 nM

Structure (SMILES): CN(C)CCCn1c(NC(=O)c2ccc3cc4n(c3n2)CC(C)(C)CNC4=O)nc2ccccc21 [Example 58, N-{1-[3-(dimethylamino)propyl]-1H-benzimidazol-2-yl}-9,9-dimethyl-6-oxo-7,8,9,10-tetrahydro-6H-pyrido[3′,2′:4,5]pyrrolo[1,2-a][1,4]diazepine-2-carboxamide]
- IC50 (Human RSK2): 2300 nM

Structure (SMILES): CCn1c(NC(=O)c2ccc3nc4n(c3c2)CCCNC4=O)nc2ccccc21 [Example 3, N-(1-ethyl-1H-benzimidazol-2-yl)-1-oxo-2,3,4,5-tetrahydro-1H-[1,4]diazepino[1,2-a]benzimidazole-8-carboxamide]
- IC50 (Human RSK2): 5.5 nM

Structure (SMILES): CC(C)n1ncc2cc(NC(=O)c3ccc4cc5n(c4n3)C(C)CCNC5=O)cnc21 (stereo not shown) [Example 29, 10-methyl-6-oxo-N-[1-(propan-2-yl)-1H-pyrazolo[3,4-b]pyridin-5-yl]-7,8,9,10-tetrahydro-6H-pyrido[3′,2′:4,5]pyrrolo[1,2-a][1,4]diazepine-2-carboxamide]
- IC50 (Human RSK2): 2.1 nM

Structure (SMILES): Cc1cc(NC(=O)c2ccc3cc4n(c3n2)[C@@H](C)[C@H](C)NC4=O)no1 (relative stereo) [Example 86, Trans-8,9-dimethyl-N-(5-methyl-1,2-oxazol-3-yl)-6-oxo-6,7,8,9-tetrahydropyrido[3′,2′:4,5]pyrrolo[1,2-a]pyrazine-2-carboxamide]
- IC50 (Human RSK2): 110 nM
